Assay results taken from PMC3759246 (Bioorganic & medicinal chemistry letters, 2013).
Marks after values point to notes of the source that are not given here.

How the values were obtained:
WT HIV-1 (IIIB) = assay: microbe, parasite or virus in culture; settings: Human immunodeficiency virus 1, IIIB, MT2, read-out: EC50 in cell assays
[1] = cited from earlier work

EC50 (WT HIV-1 (IIIB)) [nM]	Compound	Aqueous solubility S [1]
~100	Cc1ccnc2c1NC(=O)c1cccnc1N2C1CC1 [nevirapine]	–
–	Cc1cc(C#N)cc(C)c1Oc1nc(Nc2ccc(C#N)cc2)nc(N)c1Br [etravirine]	≪ 1 ^b μg/mL
